Assay: solvent given as SMILES

| Structure (SMILES) | emission maximum (in ClC(Cl)Cl) | emission maximum (in C1CCOC1) | emission maximum (in CCCCCC) | emission maximum (in CS(C)=O) | emission maximum (in ClCCl) | further results |
| --- | --- | --- | --- | --- | --- | --- |
| COc1ccc(C2=[N+]3C(=Nc4c(-c5ccccc5)c5c(n4[B-]3(F)F)-c3ccc(OC)cc3CC5)C(c3ccccc3)=C2)cc1 | 732 nm | – | – | – | – | – |
| CC(C)(C)c1cc2ccc3cc(C(C)(C)C)cc4c3c2c(c1)c(=O)n1c4nc2c3cc(C(C)(C)C)cc4ccc5cc(C(C)(C)C)cc(c5c43)c21 | 551 nm | 523 nm | 495 nm | 553 nm | – | emission maximum (in CC#N): 551 nm; emission maximum (in CC(C)=O): 544 nm; emission maximum (in CCOC(C)=O): 524 nm; emission maximum (in Cc1ccc(C)cc1): 521 nm; emission maximum (in ClC(Cl)(Cl)Cl): 520 nm; emission maximum (in c1ccccc1): 524 nm |
| O=S(=O)(/N=c1\oc2cccc3c4c(-c5ccccc5)oc5cccc(c(c1-c1ccccc1)c23)c54)C(F)(F)F | 558 nm | – | 535 nm | 596 nm | 569 nm | emission maximum (in CO): 582 nm; emission maximum (in O): 601 nm |
| COc1cc2c(cc1OC)C1=C[C@H](c3ccccc3)C3(C(C#N)=C(C#N)N1CC2)c1cc(Cl)ccc1-c1ccc(Cl)cc13 | – | – | – | – | 389 nm | – |
| FP(F)(c1c2ccccc2cc2ccccc12)(c1c2ccccc2cc2ccccc12)c1c2ccccc2cc2ccccc12 | – | 410 nm | – | – | – | – |
